Molecular target: P. falciparum apicoplast DNA polymerase (Pf-apPOL) (Plasmodium falciparum, UniProt Q8ILY1)
Test: Fluorescence-based high-throughput DNA polymerase assay (molecular beacon), primary screen and dose-response
Type: biochemical
Conditions: for DNA Pol: 90 min, 10 µM; for % inhibition Apo pol 10' 2.5 / % inhibition Apo pol 10' 5 / % inhibition Apo pol 10' 10 / % inhibition Apo pol 10' 20 / % inhibition Apo pol 10' 40 / % inhibition Apo pol 10' 80: read at 10'; for % inhibition Apol 90' 2.5 / % inhibition Apol 90' 5 / % inhibition Apol 90' 10 / % inhibition Apol 90' 20 / % inhibition Apol 90' 40 / % inhibition Apol 90' 80 / % inhibition ApPOL 90' 2.5 / % inhibition ApPOL 90' 5 / % inhibition ApPOL 90' 10 / % inhibition ApPOL 90' 20 / % inhibition ApPOL 90' 40 / % inhibition ApPOL 90' 80: read at 90'; for % inhibition apPOL 180' 2.5 / % inhibition apPOL 180' 5 / % inhibition apPOL 180' 10 / % inhibition apPOL 180' 20 / % inhibition apPOL 180' 40 / % inhibition apPOL 180' 80: read at 180'; for % inhibition Apo pol 5' 2.5 / % inhibition Apo pol 5' 5 / % inhibition Apo pol 5' 10 / % inhibition Apo pol 5' 20 / % inhibition Apo pol 5' 40 / % inhibition Apo pol 5' 80: read at 5'; for % inhibition Apol 40' 2.5 / % inhibition Apol 40' 5 / % inhibition Apol 40' 10 / % inhibition Apol 40' 20 / % inhibition Apol 40' 40 / % inhibition Apol 40' 80: read at 40'
Procedure, shortened: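 Single-point screening used 10 µM compound with 20 nM polymerase, 20 nM hairpin substrate and 6 µM dNTPs for 90 min at 25 °C. Confirmatory titrations (2.5–80 µM) followed fluorescence at three times, and IC50 was derived from a fit including a cooperativity term n.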

[1] = 186 hits, DNA Pol (screen value), unit not given
[2] = 'DNA Pol' (screen value), unit not given
[3] = first dose-response, concentration 40

Sequence of P. falciparum apicoplast DNA polymerase (Pf-apPOL) (Q8ILY1 entry or part of it): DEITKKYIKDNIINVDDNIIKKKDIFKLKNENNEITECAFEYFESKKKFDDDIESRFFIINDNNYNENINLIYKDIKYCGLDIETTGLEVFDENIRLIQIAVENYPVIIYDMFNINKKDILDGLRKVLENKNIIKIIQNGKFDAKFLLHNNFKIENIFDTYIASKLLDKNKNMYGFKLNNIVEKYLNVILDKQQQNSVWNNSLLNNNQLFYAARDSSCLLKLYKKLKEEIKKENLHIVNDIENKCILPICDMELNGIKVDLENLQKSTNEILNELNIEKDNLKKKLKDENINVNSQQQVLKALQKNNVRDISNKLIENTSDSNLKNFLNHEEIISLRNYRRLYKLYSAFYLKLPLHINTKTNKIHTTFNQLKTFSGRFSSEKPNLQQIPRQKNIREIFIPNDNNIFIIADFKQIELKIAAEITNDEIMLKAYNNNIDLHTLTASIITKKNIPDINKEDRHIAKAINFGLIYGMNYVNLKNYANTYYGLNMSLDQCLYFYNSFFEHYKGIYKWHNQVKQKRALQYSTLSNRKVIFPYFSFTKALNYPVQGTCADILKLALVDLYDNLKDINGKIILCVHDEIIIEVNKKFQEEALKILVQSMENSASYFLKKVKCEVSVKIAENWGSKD

Structure (SMILES): Cn1nc(-c2nnc(-c3ccccc3F)o2)c2c1CCN(C(=O)c1ccccc1Cl)C2 [Molecule 34, Cn1nc(c2c1CCN(C2)C(=O)c1ccccc1Cl)c1nnc(o1)c1ccccc1F]
- DNA Pol [1]: 48
- DNA Pol [2]: 48
- % inhibition Apo pol 10' 2.5 (DRC-1, concentration 2.5): 33%
- % inhibition Apo pol 10' 5 (DRC-1, concentration 5): 44%
- % inhibition Apo pol 10' 10 (DRC-1, concentration 10): 52%
- % inhibition Apo pol 10' 20 (DRC-1, concentration 20): 58%
- % inhibition Apo pol 10' 40 (DRC-1, concentration 40): 59%
- % inhibition Apo pol 10' 80 (DRC-1, concentration 80): 63%
- % inhibition Apol 90' 2.5 (DRC-1, concentration 2.5): 23%
- % inhibition Apol 90' 5 (DRC-1, concentration 5): 35%
- % inhibition Apol 90' 10 (DRC-1, concentration 10): 46%
- % inhibition Apol 90' 20 (DRC-1, concentration 20): 54%
- % inhibition Apol 90' 40 (DRC-1, concentration 40): 59%
- % inhibition Apol 90' 80 (DRC-1, concentration 80): 65%
- % inhibition apPOL 180' 2.5 (DRC-1, concentration 2.5): 17%
- % inhibition apPOL 180' 5 (DRC-1, concentration 5): 28%
- % inhibition apPOL 180' 10 (DRC-1, concentration 10): 41%
- % inhibition apPOL 180' 20 (DRC-1, concentration 20): 50%
- % inhibition apPOL 180' 40 (DRC-1, concentration 40): 58%
- % inhibition apPOL 180' 80 (DRC-1, concentration 80): 64%
- % inhibition Apo pol 5' (DRC-2, concentration 2.5): 20%
- % inhibition Apo pol 5' (DRC-2, concentration 5): 20%
- % inhibition Apo pol 5' (DRC-2, concentration 80): 39%
- % inhibition Apol 40' (DRC-2, concentration 2.5): 22%
- % inhibition Apol 40' (DRC-2, concentration 5): 27%
- % inhibition Apol 40' (DRC-2, concentration 40): 49%
- % inhibition Apol 40' (DRC-2, concentration 80): 52%
- % inhibition ApPOL 90' (DRC-2, concentration 2.5): 22%
- % inhibition ApPOL 90' (DRC-2, concentration 5): 27%
- % inhibition ApPOL 90' (DRC-2, concentration 40): 52%
- % inhibition apPOL 180' (DRC-2, concentration 20): 39%
- % inhibition apPOL 180' (DRC-2, concentration 40): 49%
- % inhibition apPOL 180' (DRC-2, concentration 80): 52%
- % inhibition Apo pol 5' 2.5 (DRC-2, concentration 2.5): 20%
- % inhibition Apo pol 5' 5 (DRC-2, concentration 5): 20%
- % inhibition Apo pol 5' 10 (DRC-2, concentration 10): 24%
- % inhibition Apo pol 5' 20 (DRC-2, concentration 20): 29%
- % inhibition Apo pol 5' 40 (DRC-2, concentration 40): 38%
- % inhibition Apo pol 5' 80 (DRC-2, concentration 80): 39%
- % inhibition Apol 40' 2.5 (DRC-2, concentration 2.5): 22%
- % inhibition Apol 40' 5 (DRC-2, concentration 5): 27%
- % inhibition Apol 40' 10 (DRC-2, concentration 10): 34%
- % inhibition Apol 40' 20 (DRC-2, concentration 20): 40%
- % inhibition Apol 40' 40 (DRC-2, concentration 40): 49%
- % inhibition Apol 40' 80 (DRC-2, concentration 80): 52%
- % inhibition ApPOL 90' 2.5 (DRC-2, concentration 2.5): 22%
- % inhibition ApPOL 90' 5 (DRC-2, concentration 5): 27%
- % inhibition ApPOL 90' 10 (DRC-2, concentration 10): 36%
- % inhibition ApPOL 90' 20 (DRC-2, concentration 20): 43%
- % inhibition ApPOL 90' 40 (DRC-2, concentration 40): 52%
- % inhibition ApPOL 90' 80 (DRC-2, concentration 80): 55%
- % inhibition apPOL 180' 2.5 (DRC-2, concentration 2.5): 15%
- % inhibition apPOL 180' 5 (DRC-2, concentration 5): 21%
- % inhibition apPOL 180' 10 (DRC-2, concentration 10): 31%
- % inhibition apPOL 180' 20 (DRC-2, concentration 20): 39%
- % inhibition apPOL 180' 40 (DRC-2, concentration 40): 49%
- % inhibition apPOL 180' 80 (DRC-2, concentration 80): 52%
- % inhibition Apo pol 10' (first dose-response, concentration 10): 52%
- % inhibition Apo pol 10' (first dose-response, concentration 20): 58%
- % inhibition Apo pol 10' [3]: 59%
- % inhibition Apol 90' [3]: 59%
- % inhibition apPOL 180' [3]: 58%

Structure (SMILES): CC(=O)OCC1=C(C(=O)[O-])N2C(=O)[C@@H](NC(=O)Cc3cccs3)[C@H]2SC1.[Na+] [Molecule 73, CC(=O)OCC1=C(C(=O)[O-])N2[C@H](SC1)[C@@H](C2=O)NC(=O)Cc1cccs1.[Na+]]
- DNA Pol [1]: 62
- DNA Pol [2]: 62
- % inhibition Apo pol 10' 2.5 (DRC-1, concentration 2.5): 15.9246%
- % inhibition Apo pol 10' 5 (DRC-1, concentration 5): 24.2196%
- % inhibition Apo pol 10' 10 (DRC-1, concentration 10): 38.6298%
- % inhibition Apo pol 10' 20 (DRC-1, concentration 20): 52.9189%
- % inhibition Apo pol 10' 40 (DRC-1, concentration 40): 72.9017%
- % inhibition Apo pol 10' 80 (DRC-1, concentration 80): 83.4409%
- % inhibition Apol 90' 2.5 (DRC-1, concentration 2.5): -0.64%
- % inhibition Apol 90' 5 (DRC-1, concentration 5): -0.282%
- % inhibition Apol 90' 10 (DRC-1, concentration 10): 6.863%
- % inhibition Apol 90' 20 (DRC-1, concentration 20): 14.2955%
- % inhibition Apol 90' 40 (DRC-1, concentration 40): 36.8577%
- % inhibition Apol 90' 80 (DRC-1, concentration 80): 67.9349%
- % inhibition apPOL 180' 2.5 (DRC-1, concentration 2.5): -8.644%
- % inhibition apPOL 180' 5 (DRC-1, concentration 5): -9.547%
- % inhibition apPOL 180' 10 (DRC-1, concentration 10): -4.869%
- % inhibition apPOL 180' 20 (DRC-1, concentration 20): -0.1262%
- % inhibition apPOL 180' 40 (DRC-1, concentration 40): 18.2499%
- % inhibition apPOL 180' 80 (DRC-1, concentration 80): 56.6871%
- % inhibition Apol 40' (DRC-2, concentration 2.5): 1.25%
- % inhibition Apol 40' (DRC-2, concentration 20): 29%
- % inhibition ApPOL 90' (DRC-2, concentration 2.5): 1.25%
- % inhibition apPOL 180' (DRC-2, concentration 40): 29%
- % inhibition Apo pol 5' 2.5 (DRC-2, concentration 2.5): 3%
- % inhibition Apo pol 5' 5 (DRC-2, concentration 5): 6.34%
- % inhibition Apo pol 5' 10 (DRC-2, concentration 10): 22%
- % inhibition Apo pol 5' 20 (DRC-2, concentration 20): 36%
- % inhibition Apo pol 5' 40 (DRC-2, concentration 40): 43%
- % inhibition Apo pol 5' 80 (DRC-2, concentration 80): 50%
- % inhibition Apol 40' 2.5 (DRC-2, concentration 2.5): 1.25%
- % inhibition Apol 40' 5 (DRC-2, concentration 5): 2%
- % inhibition Apol 40' 10 (DRC-2, concentration 10): 13%
- % inhibition Apol 40' 20 (DRC-2, concentration 20): 29%
- % inhibition Apol 40' 40 (DRC-2, concentration 40): 45%
- % inhibition Apol 40' 80 (DRC-2, concentration 80): 62%
- % inhibition ApPOL 90' 2.5 (DRC-2, concentration 2.5): 1.25%
- % inhibition ApPOL 90' 5 (DRC-2, concentration 5): -1.85%
- % inhibition ApPOL 90' 10 (DRC-2, concentration 10): 5%
- % inhibition ApPOL 90' 20 (DRC-2, concentration 20): 20%
- % inhibition ApPOL 90' 40 (DRC-2, concentration 40): 39%
- % inhibition ApPOL 90' 80 (DRC-2, concentration 80): 63%
- % inhibition apPOL 180' 2.5 (DRC-2, concentration 2.5): -0.311%
- % inhibition apPOL 180' 5 (DRC-2, concentration 5): -7%
- % inhibition apPOL 180' 10 (DRC-2, concentration 10): -2.83%
- % inhibition apPOL 180' 20 (DRC-2, concentration 20): 10%
- % inhibition apPOL 180' 40 (DRC-2, concentration 40): 29%
- % inhibition apPOL 180' 80 (DRC-2, concentration 80): 60%

Structure (SMILES): O=C(NC(C(Cl)Cl)S(=O)(=O)c1ccccc1)c1ccccc1 (stereo not shown) [KU0045239]
- DNA Pol ('DNA Pol' of the 186 hits list (primary screen value)): 41
- DNA Pol (DNA Pol (primary screen value)): 41
- % inhibition Apo pol 10' (DRC-1, concentration 2.5): 21.4346%
- % inhibition Apo pol 10' (DRC-1, concentration 5): 25.395%
- % inhibition Apo pol 10' (DRC-1, concentration 10): 48.7805%
- % inhibition Apo pol 10' (DRC-1, concentration 20): 67.0388%
- % inhibition Apo pol 10' (DRC-1, concentration 40): 77.5747%
- % inhibition Apo pol 10' (DRC-1, concentration 80): 80.3513%
- % inhibition Apol 90' (DRC-1, concentration 2.5): 13.64%
- % inhibition Apol 90' (DRC-1, concentration 5): 16.8163%
- % inhibition Apol 90' (DRC-1, concentration 10): 39.9321%
- % inhibition Apol 90' (DRC-1, concentration 20): 58.936%
- % inhibition Apol 90' (DRC-1, concentration 40): 71.3995%
- % inhibition Apol 90' (DRC-1, concentration 80): 76.3715%
- % inhibition apPOL 180' (DRC-1, concentration 2.5): 5.305%
- % inhibition apPOL 180' (DRC-1, concentration 5): 7.81%
- % inhibition apPOL 180' (DRC-1, concentration 10): 29.3225%
- % inhibition apPOL 180' (DRC-1, concentration 20): 48.9159%
- % inhibition apPOL 180' (DRC-1, concentration 40): 64.7265%
- % inhibition apPOL 180' (DRC-1, concentration 80): 71.27%
- % inhibition Apo pol 5' (DRC-2, concentration 2.5): 4%
- % inhibition Apo pol 5' (DRC-2, concentration 5): 18%
- % inhibition Apo pol 5' (DRC-2, concentration 10): 26%
- % inhibition Apo pol 5' (DRC-2, concentration 20): 59%
- % inhibition Apo pol 5' (DRC-2, concentration 40): 65%
- % inhibition Apo pol 5' (DRC-2, concentration 80): 46%
- % inhibition Apol 40' (DRC-2, concentration 2.5): 11%
- % inhibition Apol 40' (DRC-2, concentration 5): 25%
- % inhibition Apol 40' (DRC-2, concentration 10): 36%
- % inhibition Apol 40' (DRC-2, concentration 20): 69%
- % inhibition Apol 40' (DRC-2, concentration 40): 76%
- % inhibition Apol 40' (DRC-2, concentration 80): 62%
- % inhibition ApPOL 90' (DRC-2, concentration 2.5): 11%
- % inhibition ApPOL 90' (DRC-2, concentration 5): 24%
- % inhibition ApPOL 90' (DRC-2, concentration 10): 35%
- % inhibition ApPOL 90' (DRC-2, concentration 20): 68%
- % inhibition ApPOL 90' (DRC-2, concentration 40): 76%
- % inhibition ApPOL 90' (DRC-2, concentration 80): 64%
- % inhibition apPOL 180' (DRC-2, concentration 2.5): 6.53%
- % inhibition apPOL 180' (DRC-2, concentration 5): 11%
- % inhibition apPOL 180' (DRC-2, concentration 10): 21%
- % inhibition apPOL 180' (DRC-2, concentration 20): 58%
- % inhibition apPOL 180' (DRC-2, concentration 40): 69%
- % inhibition apPOL 180' (DRC-2, concentration 80): 58%

Reference: article PMC9090415, “Discovery of small molecule inhibitors of Plasmodium falciparum apicoplast DNA polymerase” (Journal of Enzyme Inhibition and Medicinal Chemistry, 2022)
